Reference: patent US12410136B2, “Pyridinyl morpholine compound, preparation method therefor, and application thereof” (SHANGHAI ZHONGZE THERAPEUTICS, CO. LTD., priority 2020, dated 2025)
Like-named read-outs stand apart in the source and are kept apart here.

Experiments:
[1] = test system: mouse schizophrenic model induced by Apo.; test: Apomorphine model experiment (stereotyped motion); type: in vivo, C57BL/6 mice; settings: for ED50: Mus musculus, single oral administration, apomorphine 5 mg/kg i.p., mice, read-out: Inhibition of total stereotyped motion of mouse schizophrenic model induced by Apo., ED50; for Effect (ED50) on the stereotyped behavior of mice compared with cariprazine: apomorphine model, oral
Procedure: 1. Apomorphine Model Experiment
1) 4 point, continuous biting;
2) 3 point, the cage lid was bit at least once during observation;
3) 2 point, the cage chassis or cage wall was licked at least once during observation;
4) 1 point, compulsive sniffing and bowing activities were appeared;
5) 0 point, no of the above activities.
The total score of the mice was calculated for the above behaviors within 70 min, and the improvement rate was calculated according to the following formula.
During the experiment, the clinical response symptoms of the animals were recorded.
All data were expressed as x±SEM, processed with the 11.5 software statistical package, and t-test and one-way analysis of variance were performed for the comparison of the means of the two samples, with P<0.05 as a significant difference.

[2] = Acute toxicity experiment, single oral administration; settings: ICR, mouse, in vivo
Procedure: Acute Toxicity Experiments of the Compound
2) Solvent preparation: An appropriate amount of Tween-80 was weighed and diluted with deionized water to a concentration of […] (g/v) Tween-80.
4) Route of administration: The administration route of the test samples and the solvent control group (0.5% Tween-80) was oral administration.
5) Frequency of administration: Single administration, fasting overnight before administration.
6) Dosing capacity: 20 mL/kg.
[…]; the observation period was 2 to 6 days, twice a day, once in the morning and once in the afternoon.
The observation content includes, but is not limited to, general condition, behavioral activity, gait posture, eye, mouth, nose, gastrointestinal tract, skin hair, urogenital tract.
Body weight data were expressed as mean±standard deviation, and were compared between groups using Levene's test and one-way ANOVA. If there were differences, Dunnet t test was used.
In the MTD test, the tolerance of the animals to the drug was investigated, and the maximum tolerated dose was reached when the animals were dying frequently.

[3] = test system: mouse model of schizophrenia induced by MK-801; test: MK-801 model experiment (open-field motion); settings: for ED50: Mus musculus, 1.5 h, read-out: Effect on the total distance of open-field motion in mouse model of schizophrenia induced by MK-801, ED50; for Improvement rate on open-field motion of mice compared with cariprazine: MK-801 model, oral
Procedure: An acute mode of administration was used in the experiment. The experimental mice were randomly divided into groups and put into a spontaneous activity box to adapt for 5-10 minutes before the experiment. […] The data were expressed as mean±standard error (Mean±SEM), and were analyzed using GraphPad Prism software, and data analysis was performed using t-test, and a significant difference was considered to exist when P<0.05.

[4] = molecular target: T1, human recombinant D3 receptor (Homo sapiens, UniProt P35462); test: Dopamine D3 receptor binding test; settings: [3H]methyl-spiperone 0.3 nM, human recombinant D3 receptor expressed in CHO cells; read-out: Affinity of the compound for each receptor (Ki value, nM) D3
T1 construct: expressed in transfected cells; host or cells: CHO
Procedure: Dopamine D3 Receptor Binding Test
[^3H]methyl-spiperone (0.3 nM) was used as the ligand, and (+)-butaclamol (10 μM) was used to determine the non-specific binding, and the binding assay was performed on human recombinant D3 receptor (expressed in CHO cells).

5-HT2A receptor = molecular target: T2, 5-HT2A receptor (Homo sapiens, UniProt P28223); test: 5-HT2A receptor binding test
T2 construct: expressed in transfected cells; host or cells: HEK293
Description: 5-HT2A Receptor Binding Test
Beckman LS-6500 multifunctional liquid scintillation counter.
Tris-HCl reaction buffer (pH 7.7) was used to resuspend in the experiment.

H1 receptor = molecular target: T3, H1 receptor (Homo sapiens, UniProt P35367); test: H1 receptor binding test; settings: 1 nM [3H]pyrilamine, HEK-293 cell membrane homogenate; read-out: Affinity of the compound for H1 receptor (Ki value, nM) H1
T3 construct: expressed in transfected cells; host or cells: HEK-293
Procedure: Non-specific binding was determined in the presence of 1 μM pyrilamine.

D2 receptor = D2 receptor (Homo sapiens, UniProt P14416); test: Dopamine D2 receptor binding test
Procedure: Dopamine D2 Receptor Binding Test
In this experiment, HEK293 cells were transfected with plasmid vector containing D2 receptor protein gene, and calcium phosphate transfection method was used and after transfection, the cells were cultured in a culture solution containing G418, and the cell monoclonal and radioligand binding experiments were selected, and finally a stable cell line which could stably express D2 receptor protein was obtained.
HeK-293 cells were infected with recombinant viruses containing the above various genes respectively, and after 48-72 hours, the receptor proteins were expressed in large quantities on the membrane, and the cells were centrifuged at 1000 rpm for 5 min and then the culture solution was discarded, and the cells were collected, and stored in a −20° C. refrigerator for later use. Tris-HCl reaction buffer (pH=7.5) was used to resuspend in the experiment.
On the Millipore cell sample collector, the mixture was quickly filtrated under reduced pressure through GF/C glass fiber filter paper, and eluted with 3 mL of eluent (50 mMTris-HCl, pH 7.5) for 3 times, then dried under microwave for 5 to 6 min. The filter paper was moved into a 0.5 mL centrifuge tube, and 500 μL of lipid-soluble scintillation solution was added. The mixture was kept in the dark for more than 30 min, and the radioactivity intensity was determined by counting. […] Two replicate tubes were made for each experiment of compound, and two separate experiments were performed.
Two tubes were tested for each concentration and two independent tests were performed for each compound.

[5] = [3H]-Ketanserin, 5-HT2A receptor expressed in HEK293 cells, read-out: Affinity of the compound for each receptor (Ki value, nM) 5-HT2A

T2 sequence (P28223 whole entry): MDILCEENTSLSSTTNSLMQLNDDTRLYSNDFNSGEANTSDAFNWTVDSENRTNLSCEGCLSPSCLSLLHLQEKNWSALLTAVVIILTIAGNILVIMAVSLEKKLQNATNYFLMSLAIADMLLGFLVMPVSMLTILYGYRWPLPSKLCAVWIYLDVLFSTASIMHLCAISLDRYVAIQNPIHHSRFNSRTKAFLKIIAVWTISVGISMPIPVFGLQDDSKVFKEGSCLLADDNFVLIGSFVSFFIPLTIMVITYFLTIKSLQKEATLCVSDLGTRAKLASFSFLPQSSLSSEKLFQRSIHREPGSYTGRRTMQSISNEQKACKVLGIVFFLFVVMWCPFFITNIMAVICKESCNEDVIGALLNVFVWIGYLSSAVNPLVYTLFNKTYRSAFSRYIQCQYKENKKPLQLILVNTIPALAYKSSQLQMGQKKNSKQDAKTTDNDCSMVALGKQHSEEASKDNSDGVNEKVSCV
D2 receptor, sequence (P14416 whole entry): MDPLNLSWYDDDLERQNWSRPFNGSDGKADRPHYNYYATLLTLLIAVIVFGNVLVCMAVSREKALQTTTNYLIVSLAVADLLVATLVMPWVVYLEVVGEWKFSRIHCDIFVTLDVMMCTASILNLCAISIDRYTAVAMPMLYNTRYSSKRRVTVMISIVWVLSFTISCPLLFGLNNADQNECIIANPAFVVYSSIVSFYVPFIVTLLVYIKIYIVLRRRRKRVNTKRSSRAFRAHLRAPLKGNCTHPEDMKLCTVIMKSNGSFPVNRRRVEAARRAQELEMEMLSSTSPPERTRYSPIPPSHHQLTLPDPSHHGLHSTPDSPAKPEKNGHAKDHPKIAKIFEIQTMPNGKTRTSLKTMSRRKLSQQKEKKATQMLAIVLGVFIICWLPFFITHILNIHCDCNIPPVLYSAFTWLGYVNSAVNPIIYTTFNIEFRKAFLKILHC
T3 sequence (P35367 whole entry): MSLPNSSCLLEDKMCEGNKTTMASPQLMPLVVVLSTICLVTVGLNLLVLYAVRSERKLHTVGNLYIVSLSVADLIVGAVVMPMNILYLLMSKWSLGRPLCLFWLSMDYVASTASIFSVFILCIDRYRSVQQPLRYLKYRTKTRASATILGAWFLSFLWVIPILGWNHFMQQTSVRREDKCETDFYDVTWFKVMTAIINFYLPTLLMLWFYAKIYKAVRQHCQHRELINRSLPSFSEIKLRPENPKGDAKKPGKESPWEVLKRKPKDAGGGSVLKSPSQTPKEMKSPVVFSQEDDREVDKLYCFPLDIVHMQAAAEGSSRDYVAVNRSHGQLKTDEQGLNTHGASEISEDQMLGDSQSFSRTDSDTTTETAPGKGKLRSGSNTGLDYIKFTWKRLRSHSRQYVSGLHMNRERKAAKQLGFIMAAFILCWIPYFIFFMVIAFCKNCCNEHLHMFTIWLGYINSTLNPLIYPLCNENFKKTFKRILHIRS
T1 sequence (P35462 whole entry): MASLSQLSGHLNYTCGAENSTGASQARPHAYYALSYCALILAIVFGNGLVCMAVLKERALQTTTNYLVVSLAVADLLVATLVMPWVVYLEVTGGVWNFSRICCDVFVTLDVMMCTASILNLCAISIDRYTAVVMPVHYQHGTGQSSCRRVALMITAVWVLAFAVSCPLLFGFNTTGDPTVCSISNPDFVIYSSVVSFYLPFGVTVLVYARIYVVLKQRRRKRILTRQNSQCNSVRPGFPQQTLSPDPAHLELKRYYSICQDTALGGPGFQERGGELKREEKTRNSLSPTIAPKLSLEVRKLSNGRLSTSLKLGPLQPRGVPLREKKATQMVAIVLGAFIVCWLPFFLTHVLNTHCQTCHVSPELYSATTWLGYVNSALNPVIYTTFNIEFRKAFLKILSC

SMILES	ED50 [1] [mg/kg]	MTD [2] [mg/kg]	ED50 [3] [mg/kg]	Ki [4] [nM]	Ki (5-HT2A receptor) [nM]	Ki (H1 receptor) [nM]	Effect (ED50) on the stereotyped behavior of mice compared with cariprazine [1]	MTD ([2]; single oral administration, ICR mice, read-out: MTD (maximum tolerance)) [mg/kg]	Ki (D2 receptor) [nM]	Ki (5-HT2A receptor; [5]) [nM]	Improvement rate on open-field motion of mice compared with cariprazine [3]
CN(C)C(=O)N[C@H]1CC[C@H](CCN2CCN(c3cccc(Cl)c3Cl)CC2)CC1 [Cariprazine, cariprazine, reference compound]	0.3	320	0.15	–	–	–	–	–	–	–	–
CCOC(=O)N[C@H]1CC[C@H](CCN2CCN(c3cc(-c4ccccc4)cc(N4CCOCC4)n3)CC2)CC1 [Compound I-3, ethyl ((trans)-4-(2-(4-(6-morpholino-4-phenylpyridin-2-yl)piperazin-1-yl)ethyl)cyclohexyl)carbamate]	0.19	–	0.33	0.08	2.1	> 1000	better effects	≥ 400	2.5	–	–
O=C(N[C@H]1CC[C@H](CCN2CCN(c3cc(-c4ccco4)cc(N4CCOCC4)n3)CC2)CC1)N1CCCCC1 [Compound V-4, N-(trans-4-(2-(4-(4-(furan-2-yl)-6-morpholinopyridin-2-yl)piperazin-1-yl)ethyl)cyclohexyl)piperidine-1-carboxamide]	–	–	–	0.3	–	> 1000	–	–	10.6	2.8	–
O=C(N[C@H]1CC[C@H](CCN2CCN(c3cc(-c4ccc(F)cc4)cc(N4CCOCC4)n3)CC2)CC1)c1ccccc1 [II-1, N-(trans-4-(2-(4-(4-(4-fluorophenyl)-6-morpholinopyridin-2-yl)piperazin-1-yl)ethyl)cyclohexyl)benzamide]	–	–	–	0.2	–	670	–	–	1.7	2.3	–
O=C(N[C@H]1CC[C@H](CCN2CCN(c3cc(-c4ccc(F)cc4)cc(N4CCOCC4)n3)CC2)CC1)c1ccco1 [II-3, N-(trans-4-(2-(4-(4-(4-fluorophenyl)-6-morpholinopyridin-2-yl)piperazin-1-yl)ethyl)cyclohexyl)furan-2-carboxamide]	–	–	–	0.09	–	980	–	–	1.4	1.2	–
CNC(=O)N[C@H]1CC[C@H](CCN2CCN(c3cc(-c4ccc(F)cc4)cc(N4CCOCC4)n3)CC2)CC1 [II-4, 1-(trans-4-(2-(4-(4-(4-fluorophenyl)-6-morpholinopyridin-2-yl)piperazin-1-yl)ethyl)cyclohexyl)-3-methylurea]	–	–	–	0.3	–	540	–	–	2.8	0.9	–
CCCN(C)C(=O)N[C@H]1CC[C@H](CCN2CCN(c3cc(-c4ccc(F)cc4)cc(N4CCOCC4)n3)CC2)CC1 [II-6, 3-(trans-4-(2-(4-(4-(4-fluorophenyl)-6-morpholinopyridin-2-yl)piperazin-1-yl)ethyl)cyclohexyl)-1-methyl-1-propylurea]	0.13	–	0.1	0.04	–	> 1000	better effects	–	1	1.3	better
COc1ccc(-c2cc(N3CCOCC3)nc(N3CCN(CC[C@H]4CC[C@H](NC(=O)N5CCCC5)CC4)CC3)c2)cc1 [III-1, N-(trans-4-(2-(4-(4-(4-methoxyphenyl)-6-morpholinopyridin-2-yl)piperazin-1-yl)ethyl)cyclohexyl)tetrahydropyrrole-1-carboxamide]	–	–	–	0.2	–	> 1000	–	–	3.2	10.8	–
COc1ccc(-c2cc(N3CCOCC3)nc(N3CCN(CC[C@H]4CC[C@H](NC(=O)N5CCOCC5)CC4)CC3)c2)cc1 [III-2, N-(trans-4-(2-(4-(4-(4-methoxyphenyl)-6-morpholinopyridin-2-yl)piperazin-1-yl)ethyl)cyclohexyl)morpholine-4-carboxamide]	–	–	–	0.07	–	> 1000	–	–	1.9	5.1	–
COc1ccc(-c2cc(N3CCOCC3)nc(N3CCN(CC[C@H]4CC[C@H](NC(=O)N5CCCCC5)CC4)CC3)c2)cc1 [III-3, N-(trans-4-(2-(4-(4-(4-methoxyphenyl)-6-morpholinopyridin-2-yl)piperazin-1-yl)ethyl)cyclohexyl)piperidine-1-carboxamide]	–	–	–	0.5	–	> 1000	–	–	4.6	12.5	–
CCC(=O)N[C@H]1CC[C@H](CCN2CCN(c3cc(-c4cccnc4)cc(N4CCOCC4)n3)CC2)CC1 [IV-1]	–	–	–	0.05	–	> 1000	–	–	2.5	2.7	–
CN(C)C(=O)N[C@H]1CC[C@H](CCN2CCN(c3cc(-c4cccnc4)cc(N4CCOCC4)n3)CC2)CC1 [IV-3]	–	–	–	0.1	–	790	–	–	2	3.6	–
CC(C)N(C(=O)N[C@H]1CC[C@H](CCN2CCN(c3cc(-c4cccnc4)cc(N4CCOCC4)n3)CC2)CC1)C(C)C [IV-4]	–	–	–	0.08	–	670	–	–	1.7	8.7	–
CC(=O)N[C@H]1CC[C@H](CCN2CCN(c3cc(-c4cccs4)cc(N4CCOCC4)n3)CC2)CC1 [VI-1, N-(trans-4-(2-(4-(6-morpholino-4-(thiophen-2-yl)pyridin-2-yl)piperazin-1-yl)ethyl)cyclohexyl)acetamide]	0.55	–	0.12	0.05	–	> 1000	–	–	0.8	1.6	better
O=C(N[C@H]1CC[C@H](CCN2CCN(c3cc(-c4cccs4)cc(N4CCOCC4)n3)CC2)CC1)C1CC1 [VI-2, N-(trans-4-(2-(4-(6-morpholino-4-(thiophen-2-yl)pyridin-2-yl)piperazin-1-yl)ethyl)cyclohexyl)cyclopropanecarboxamide]	–	–	–	0.08	–	> 1000	–	–	1.3	2.1	–
O=C(N[C@H]1CC[C@H](CCN2CCN(c3cc(-c4cccs4)cc(N4CCOCC4)n3)CC2)CC1)c1cccnc1 [VI-3, N-(trans-4-(2-(4-(6-morpholino-4-(thiophen-2-yl)pyridin-2-yl)piperazin-1-yl)ethyl)cyclohexyl)nicotinamide]	–	–	–	0.8	–	740	–	–	1.9	1.7	–
CN(C)C(=O)N[C@H]1CC[C@H](CCN2CCN(c3cc(-c4cccs4)cc(N4CCOCC4)n3)CC2)CC1 [VI-4, 1,1-dimethyl-3-(trans-4-(2-(4-(6-morpholino-4-(thiophen-2-yl)pyridin-2-yl)piperazin-1-yl)ethyl)cyclohexyl)urea]	–	–	–	0.1	–	590	–	–	2	0.9	–
CCC(=O)N[C@H]1CC[C@H](CCN2CCN(c3cc(-c4ccc[nH]4)cc(N4CCOCC4)n3)CC2)CC1 [VII-1, N-(trans-4-(2-(4-(6-morpholino-4-(1H-pyrrol-2-yl)pyridin-2-yl)piperazin-1-yl)ethyl)cyclohexyl)propionamide]	–	–	–	0.28	–	460	–	–	4.5	3.2	–
O=C(N[C@H]1CC[C@H](CCN2CCN(c3cc(-c4ccc[nH]4)cc(N4CCOCC4)n3)CC2)CC1)c1ccco1 [VII-2, N-(trans-4-(2-(4-(6-morpholino-4-(1H-pyrrol-2-yl)pyridin-2-yl)piperazin-1-yl)ethyl)cyclohexyl)furan-2-carboxamide]	–	–	–	0.1	–	600	–	–	2.6	0.7	–
O=C(N[C@H]1CC[C@H](CCN2CCN(c3cc(-c4ccc[nH]4)cc(N4CCOCC4)n3)CC2)CC1)N1CCCCC1 [VII-5, N-(trans-4-(2-(4-(6-morpholino-4-(1H-pyrrol-2-yl)pyridin-2-yl)piperazin-1-yl)ethyl)cyclohexyl)piperidine-1-carboxamide]	–	–	–	0.3	–	> 1000	–	–	4	7.9	–
